According to paper PMC9130538, “Amino acids in transmembrane helix 1 confer major functional differences between human and mouse orthologs of the polyspecific membrane transporter OCT1” (The Journal of Biological Chemistry, 2022):

What was measured:
[1] = human, estimated based on clinical data, ref [39]; cited from earlier work
mouse Oct1 Leu32Phe = target: T1, mouse Oct1 Leu32Phe (Mus musculus, UniProt O08966, L32F); test: Uptake by HEK293 cells overexpressing Leu32Phe mouse Oct1; assay type: cell-based; conditions: 200 μM trospium, 2 min, transient transfection
T1 construct: expressed in transfected cells
Method: (§1) Human–mouse chimeric OCT1 constructs were generated using the overlap extension method ([50]) and have been characterized before ([34]). […] All constructs were validated by capillary sequencing of the complete open reading frame of OCT1 before transfection into HEK293 cells.
(§2) For transient transfection of OCT1 constructs into HEK293 cells for uptake experiments, 5 × 10^5 T-REx-293 cells (Life Technologies) were seeded per well in 12-well plates precoated with poly-D-lysine. […] At 48 h later, transfection efficacy was assessed microscopically by visualizing the GFP signal of the cotransfected GFP vector, and the cells were subsequently used for uptake experiments. […]
(§3) Cellular uptake experiments were performed at 37 °C and pH 7.4 using HBSS supplemented with 10 mM Hepes (in the following referred to as HBSS+). […] Cells were washed twice with 2 ml ice-cold HBSS+ and lysed with 80% acetonitrile supplemented with internal standard, 0.1 N NaOH/0.1% SDS, or radioimmunoprecipitation buffer for LC–MS/MS, liquid scintillation counting, or fluorescence spectroscopy detection, respectively. Intracellular substrate concentrations were measured as described in the following and were then normalized to the amount of total protein in the samples as measured using the bicinchoninic acid assay ([51]). […]

human OCT1 Cys36Tyr = target: T2, human OCT1 Cys36Tyr (Homo sapiens, UniProt O15245, C36Y); test: Uptake by HEK293 cells overexpressing Cys36Tyr human OCT1; assay type: cell-based; conditions: 2 min
T2 construct: expressed in transfected cells
Method: as §1, §2, §3

human OCT1 = target: T3, human OCT1 (Homo sapiens, UniProt O15245); test: Cellular uptake by HEK293 cells overexpressing human OCT1 (wildtype)
T3 sequence (O15245 1-554): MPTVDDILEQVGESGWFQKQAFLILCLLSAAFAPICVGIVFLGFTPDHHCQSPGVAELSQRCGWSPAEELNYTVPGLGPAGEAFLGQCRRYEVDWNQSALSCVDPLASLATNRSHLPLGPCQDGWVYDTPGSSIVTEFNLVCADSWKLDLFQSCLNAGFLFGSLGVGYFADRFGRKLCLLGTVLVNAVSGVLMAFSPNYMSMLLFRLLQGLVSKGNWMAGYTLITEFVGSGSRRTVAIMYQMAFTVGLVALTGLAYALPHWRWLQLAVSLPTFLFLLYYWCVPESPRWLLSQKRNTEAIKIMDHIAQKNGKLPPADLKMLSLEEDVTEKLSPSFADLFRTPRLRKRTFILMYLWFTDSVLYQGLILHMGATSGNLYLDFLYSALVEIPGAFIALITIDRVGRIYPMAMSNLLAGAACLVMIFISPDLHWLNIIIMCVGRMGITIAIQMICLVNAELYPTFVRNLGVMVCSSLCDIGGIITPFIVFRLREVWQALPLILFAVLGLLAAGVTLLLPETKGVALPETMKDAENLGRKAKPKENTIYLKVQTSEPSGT
Method: Generation and characterization of these cell lines has been described in detail before ([34], [48], [49]). Cells were cultured in Dulbecco’s Modified Eagle’s Medium supplemented with 10% fetal bovine serum, 100 U/ml penicillin, and 100 μg/ml streptomycin at 37 °C and 5% CO2 and were passaged twice a week.
At 48 h prior to the experiment, 6 × 10^5 cells were seeded per well in 12-well plates. When using transiently transfected cells, 5 × 10^5 T-REx-293 cells (Life Technologies) were seeded per well in 12-well plates 72 h prior to the experiment, and they were transfected 24 h later as described previously. Twelve-well plates were precoated with poly-D-lysine.
Cellular uptake experiments were performed at 37 °C and pH 7.4 using HBSS supplemented with 10 mM Hepes (in the following referred to as HBSS+). Cells were washed with 1 ml prewarmed (37 °C) HBSS+, and the uptake was initiated by adding 400 μl of prewarmed HBSS+ containing the substrate. Uptake was allowed for exactly 2 min and afterward stopped by adding 2 ml ice-cold HBSS+. Cells were washed twice with 2 ml ice-cold HBSS+ and lysed with 80% acetonitrile supplemented with internal standard, 0.1 N NaOH/0.1% SDS, or radioimmunoprecipitation buffer for LC–MS/MS, liquid scintillation counting, or fluorescence spectroscopy detection, respectively. Intracellular substrate concentrations were measured as described in the following and were then normalized to the amount of total protein in the samples as measured using the bicinchoninic acid assay ([51]).
For LC–MS/MS quantification of intracellular substrate concentrations, the cell lysate was centrifuged at 16,000g for 15 min, and 350 μl of supernatant was evaporated to dryness under nitrogen flow at 40 °C. The sample was reconstituted with 200 μl 0.1% formic acid, and between 2 and 30 μl were injected into the LC–MS/MS system (Table S1).
An API4000 QTRAP tandem mass spectrometer with ESI interface (AB SCIEX) was used, coupled to a Shimadzu Nexera X2 UHPLC system with LC 30AD pumps and SiL 30AC autosampler (Shimadzu).
Intracellular concentrations of radioactively labeled substrates MPP^+ and TEA^+ were quantified using liquid scintillation counting. To this end, 400 μl cell lysate was transferred into a 20 ml scintillation vial, 9 ml Aquasafe 500 Plus liquid scintillator (both Zinsser Analytics) was added, and the sample was measured in the Scintillation Counter LS6500 (Beckman Coulter).
For both analyses, SPSS Statistics, version 28 (SPSS, Inc, IBM) was used.

[2] = target: T4, human OCT1 with mouse TMH1 (human–mouse chimeric OCT1) (Homo sapiens, UniProt O15245, A31S/C36Y/F32L/I24L/L28I); test: Uptake by HEK293 cells transiently overexpressing chimeric human OCT1 carrying mouse TMH1; assay type: cell-based; conditions: 200 μM trospium, 2 min, transient transfection
T4 construct: expressed in transfected cells
Method: as §1, §2, §3

human OCT1 Phe32Leu = target: T5, human OCT1 Phe32Leu (Homo sapiens, UniProt O15245, F32L); test: Uptake by HEK293 cells overexpressing Phe32Leu human OCT1; assay type: cell-based; conditions: 200 μM trospium, 2 min, transient transfection, versus human wildtype
T5 construct: expressed in transfected cells
Method: as §1, §2, §3

mouse Oct1 Tyr36Cys = mouse Oct1 Tyr36Cys (Mus musculus, UniProt O08966, Y36C); conditions: stably transfected HEK293, increasing concentrations, 2 min
Method: as §1, §2, §3

[3] = human versus mouse OCT1, stably transfected HEK293

T1 sequence (O08966 whole entry L32F): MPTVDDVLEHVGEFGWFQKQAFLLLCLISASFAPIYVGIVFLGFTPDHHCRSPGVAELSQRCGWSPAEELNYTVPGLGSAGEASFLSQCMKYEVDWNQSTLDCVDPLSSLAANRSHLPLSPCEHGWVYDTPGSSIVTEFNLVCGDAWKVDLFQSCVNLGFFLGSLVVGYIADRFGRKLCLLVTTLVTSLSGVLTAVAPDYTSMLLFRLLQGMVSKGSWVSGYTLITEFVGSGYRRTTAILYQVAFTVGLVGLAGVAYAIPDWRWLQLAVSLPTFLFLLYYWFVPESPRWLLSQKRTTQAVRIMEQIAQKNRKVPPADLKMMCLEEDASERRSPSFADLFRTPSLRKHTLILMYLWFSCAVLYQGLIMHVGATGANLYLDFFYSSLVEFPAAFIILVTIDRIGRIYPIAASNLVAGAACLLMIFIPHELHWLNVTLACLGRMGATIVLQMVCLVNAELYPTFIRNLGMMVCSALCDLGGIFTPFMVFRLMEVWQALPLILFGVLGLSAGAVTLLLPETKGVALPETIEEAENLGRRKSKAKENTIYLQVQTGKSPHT
Sequence of mouse Oct1 Tyr36Cys (O08966 whole entry Y36C): as the sequence (O08966 whole entry L32F) above, with F32L, Y36C counted along it

Structure (SMILES)	clinically relevant (plasma) concentration [1]	trospium uptake exceeding the uptake of the human ortholog (mouse Oct1 Leu32Phe; versus human wildtype OCT1)	increase of trospium uptake by Leu32Phe in mouse Oct1 (mouse Oct1 Leu32Phe; versus mouse wildtype)	effect of Cys36Tyr on uptake of trospium (human OCT1 Cys36Tyr; 200 μM trospium, transient transfection)	difference in uptake between human and mouse OCT1 at low concentration (human OCT1; 100 nM, 2 min, stably transfected HEK293)	fold higher capacity (vmax) of human OCT1 than mouse Oct1 (human OCT1; [3])	fold lower affinity (KM) of human OCT1 than mouse Oct1 (higher affinity of mouse Oct1) (human OCT1; [3])	decrease of trospium uptake compared with human wildtype [2]	decrease of trospium uptake by Phe32Leu in human OCT1 (human OCT1 Phe32Leu)	effect of Tyr36Cys in mouse OCT1 on affinity (KM) (mouse Oct1 Tyr36Cys)	effect of Cys36Tyr in human OCT1 on affinity (KM) (human OCT1 Cys36Tyr; stably transfected HEK293, increasing concentrations)
O=C(O[C@H]1C[C@H]2CC[C@@H](C1)[N+]21CCCC1)C(O)(c1ccccc1)c1ccccc1 [Trospium]	13.3 nM	2.8 fold	sevenfold	did not affect	did not see differences in uptake	9.0 fold	10.6 fold	91%	79%		
CC(C)(C)NCC(O)c1cc(O)cc(O)c1 (stereo not drawn) [Terbutaline]							more than sixfold higher affinity of mouse Oct1			did not affect	did not affect
